Assay results: patent US20250282785A1, “PYRROLIDINONE DERIVATIVES AS INHIBITORS OF NF KAPPA B INDUCING KINASE” (priority 2022, published 2025)

Legend:
[1] = target: Recombinant Human NF-Kappab-Inducing Kinase (NIK/MAP3K14) (Homo sapiens, UniProt Q99558); assay: Inhibition of auto-phosphorylation of recombinant human NIK/MAP3K14 (AlphaScreen); format: biochemical; conditions: NIK/MAP3K14 auto-phosphorylation, 5 microM ATP, 1 nM enzyme, 2 h at 25° C.; average of values; read-out: Assay 1 IC50
Outline: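 AlphaScreen read-out used anti-phospho-IKK Ser176/180 antibody after 2 h, 25 °C incubation of compound, 1 nM GST-NIK and 5 µM ATP (final DMSO 0.7%). Percent inhibition referenced to high (enzyme) and low (no enzyme, no ATP) controls; sigmoidal curve fitting gave IC50.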

[2] = system: p-IKKα levels in L363 (NIK translocated multiple myeloma) cells; assay: Effect of compounds on p-IKKα levels in L363 cells (AlphaLISA SureFire Ultra); format: cell-based; conditions: Homo sapiens, L-363; L363 cells, BAFF stimulated, MG132, 6 h; average of values; read-out: Assay 2 IC50
Outline: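 Phospho-IKKα (Ser 176/180) was quantified by AlphaLISA in lysed L363 cells after 6 h compound exposure (0.3% DMSO, 11 points, 1:3) alongside 250 ng/ml BAFF and 10 uM MG132, following overnight BAFF priming in low-serum DMEM. Duplicate curves were scaled between BAFF/DMSO/MG132 and unstimulated DMSO wells, then fitted sigmoidally for IC50.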

Recombinant Human NF-Kappab-Inducing Kinase (NIK/MAP3K14), sequence (Q99558 whole entry): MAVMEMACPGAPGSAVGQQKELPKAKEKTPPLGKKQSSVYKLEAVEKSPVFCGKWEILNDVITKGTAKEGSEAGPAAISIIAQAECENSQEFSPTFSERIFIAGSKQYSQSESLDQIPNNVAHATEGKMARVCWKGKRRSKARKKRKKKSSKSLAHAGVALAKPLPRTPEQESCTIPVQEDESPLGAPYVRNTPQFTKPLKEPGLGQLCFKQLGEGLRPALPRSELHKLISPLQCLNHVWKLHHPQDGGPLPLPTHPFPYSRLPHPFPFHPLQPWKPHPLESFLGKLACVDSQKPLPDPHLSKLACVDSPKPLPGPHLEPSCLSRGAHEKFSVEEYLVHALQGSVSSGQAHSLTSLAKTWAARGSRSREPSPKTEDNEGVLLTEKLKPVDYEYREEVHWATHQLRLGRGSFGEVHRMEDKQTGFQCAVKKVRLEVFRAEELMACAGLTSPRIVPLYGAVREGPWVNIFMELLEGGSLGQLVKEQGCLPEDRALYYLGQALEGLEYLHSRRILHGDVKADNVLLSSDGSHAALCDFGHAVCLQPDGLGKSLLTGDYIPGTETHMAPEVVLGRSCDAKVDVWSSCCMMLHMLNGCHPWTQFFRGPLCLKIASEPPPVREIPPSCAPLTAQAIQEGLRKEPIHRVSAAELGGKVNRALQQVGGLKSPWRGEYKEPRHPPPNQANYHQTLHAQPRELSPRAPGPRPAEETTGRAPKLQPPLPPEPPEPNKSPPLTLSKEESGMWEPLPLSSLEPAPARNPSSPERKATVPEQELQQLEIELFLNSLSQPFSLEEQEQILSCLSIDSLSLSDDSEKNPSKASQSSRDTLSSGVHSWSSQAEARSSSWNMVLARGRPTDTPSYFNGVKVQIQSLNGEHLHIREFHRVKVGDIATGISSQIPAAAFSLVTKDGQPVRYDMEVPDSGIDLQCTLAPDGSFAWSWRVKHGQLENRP

SMILES	IC50 [1] [nM]	IC50 [2] [nM]
CN1CC[C@@](O)(c2cc(-c3cccc(-c4cc(-c5c[nH]nc5C5CC5)cc(C(N)=O)n4)c3)no2)C1=O [Example 190, (R)-4-(3-Cyclopropyl-1H-pyrazol-4-yl)-6-(3-(5-(3-hydroxy-1-methyl-2-oxopyrrolidin-3-yl)isoxazol-3-yl)phenyl)picolinamide]	< 100	> 501
CN1CC[C@@](O)(c2cc(-c3cccc(-c4nc(C(N)=O)c(NC5COC5)s4)c3)no2)C1=O [Example 210, (R)-2-(3-(5-(3-Hydroxy-1-methyl-2-oxopyrrolidin-3-yl)isoxazol-3-yl)phenyl)-5-(oxetan-3-ylamino)thiazole-4-carboxamide]	< 100	< 100
COc1cc(-c2cc(-c3cc([C@@]4(O)C(=O)N(C)CC4(F)F)on3)ccc2F)nc2c(N)ncnc12 [Example 119, (R)-3-(3-(3-(4-Amino-8-methoxypyrido[3,2-d]pyrimidin-6-yl)-4-fluorophenyl)isoxazol-5-yl)-4,4-difluoro-3-hydroxy-1-methylpyrrolidin-2-one]	< 100	100 to 500
COc1cc(C(N)=O)nc(-c2cccc(-c3cc([C@]4(O)CCN(C)C4=O)on3)c2)c1 [Example 8, (R)-6-(3-(5-(3-Hydroxy-1-methyl-2-oxopyrrolidin-3-yl)isoxazol-3-yl)phenyl)-4-methoxypicolinamide]	< 100	100 to 500
CN1CC[C@@](O)(c2cc(-c3cccc(-c4cc(C5CC5)c(N)c(C(N)=O)n4)c3)on2)C1=O [Example 108, (R)-3-Amino-4-cyclopropyl-6-(3-(3-(3-hydroxy-1-methyl-2-oxopyrrolidin-3-yl)isoxazol-5-yl)phenyl)picolinamide]	< 100	< 100
CN1CC[C@@](O)(c2cc(-c3cccc(-c4cc(-c5ccnn5C5CC5)cc(C(N)=O)n4)c3)no2)C1=O [Example 185, (R)-4-(1-Cyclopropyl-1H-pyrazol-5-yl)-6-(3-(5-(3-hydroxy-1-methyl-2-oxopyrrolidin-3-yl)isoxazol-3-yl)phenyl)picolinamide]	< 100	> 501
CN1CC[C@@](O)(c2cc(-c3cccc(-c4cccc(C(N)=O)n4)c3)on2)C1=O [Example 18, (R)-6-(3-(3-(3-Hydroxy-1-methyl-2-oxopyrrolidin-3-yl)isoxazol-5-yl)phenyl)picolinamide]	< 100	> 501
Cc1cc(-c2cc([C@]3(O)CCN(C)C3=O)on2)cc(-c2cccc(C(N)=O)n2)c1 [Example 152, (R)-6-(3-(5-(3-Hydroxy-1-methyl-2-oxopyrrolidin-3-yl)isoxazol-3-yl)-5-methylphenyl)picolinamide]	< 100	> 501
[2H]c1nc(N)c2nc(-c3cccc(-n4cc([C@@]5(O)CCN(C)C5=O)nn4)c3)ccc2n1 [Example 36, (S)-3-(1-(3-(4-Aminopyrido[3,2-d]pyrimidin-6-yl-2-d)phenyl)-1H-1,2,3-triazol-4-yl)-3-hydroxy-1-methylpyrrolidin-2-one]	100 to 500	> 501
Cc1nc(N)c2nc(-c3ccc(-c4cc([C@]5(O)CCN(C)C5=O)on4)o3)ccc2n1 [Example 159, (R)-3-(3-(5-(4-Amino-2-methylpyrido[3,2-d]pyrimidin-6-yl)furan-2-yl)isoxazol-5-yl)-3-hydroxy-1-methylpyrrolidin-2-one]	< 100	100 to 500
CN1CC[C@@](O)(c2cc(-c3cccc(-c4ccc5[nH]nc(N)c5n4)c3)on2)C1=O [Example 17, (R)-3-(5-(3-(3-Amino-1H-pyrazolo[4,3-b]pyridin-5-yl)phenyl)isoxazol-3-yl)-3-hydroxy-1-methylpyrrolidin-2-one]	< 100	> 501
COc1ccc2c(c1)c(C(N)=O)nn2-c1cccc(-c2cc([C@]3(O)CCN(C)C3=O)on2)c1 [Example 103, (R)-1-(3-(5-(3-Hydroxy-1-methyl-2-oxopyrrolidin-3-yl)isoxazol-3-yl)phenyl)-5-methoxy-1H-indazole-3-carboxamide]	< 100	< 100
CN1CC[C@@](O)(c2cc(-c3ccnc(-n4nc(C(N)=O)c5ccccc54)c3)no2)C1=O [Example 22, (R)-1-(4-(5-(3-Hydroxy-1-methyl-2-oxopyrrolidin-3-yl)isoxazol-3-yl)pyridin-2-yl)-1H-indazole-3-carboxamide]	< 100	< 100
[2H]c1nc(N)c2nc(-c3cccc(-c4nc([C@]5(O)CCN(C)C5=O)cs4)c3)ccc2n1 (single isomer, unassigned) [Example 33]	> 501	> 501
CN1CC[C@@](O)(c2cc(-c3cccc(-c4ncc(N)c(C(=O)N[C@H]5CCOC5)n4)c3)no2)C1=O [Example 126, 5-Amino-2-(3-(5-((R)-3-hydroxy-1-methyl-2-oxopyrrolidin-3-yl)isoxazol-3-yl)phenyl)-N—((S)-tetrahydrofuran-3-yl)pyrimidine-4-carboxamide]	< 100	> 501
CN1CC[C@@](O)(c2cc(-c3cccc(-c4cc(-c5cncs5)cc(C(N)=O)n4)c3)no2)C1=O [Example 184, (R)-6-(3-(5-(3-Hydroxy-1-methyl-2-oxopyrrolidin-3-yl)isoxazol-3-yl)phenyl)-4-(thiazol-5-yl)picolinamide]	< 100	100 to 500
CN1CC[C@@](O)(c2cc(-c3ccnc(-c4cc(C5CC5)c(N)c(C(N)=O)n4)c3)no2)C1=O [Example 241, (R)-5-Amino-4-cyclopropyl-4′-(5-(3-hydroxy-1-methyl-2-oxopyrrolidin-3-yl)isoxazol-3-yl)-[2,2′-bipyridine]-6-carboxamide]	< 100	< 100
[2H]c1nc(N)c2nc(-c3cccc(-c4cc([C@@]5(O)CCN(C)C5=O)n[nH]4)c3)ccc2n1 (single isomer, unassigned) [Example 37]	> 501	> 501
CN1CC[C@@](O)(c2cc(-c3cccc(-c4cc(-c5ccns5)cc(C(N)=O)n4)c3)no2)C1=O [Example 183, (R)-6-(3-(5-(3-Hydroxy-1-methyl-2-oxopyrrolidin-3-yl)isoxazol-3-yl)phenyl)-4-(isothiazol-5-yl)picolinamide]	< 100	> 501
CN1CC[C@@](O)(c2cc(-c3cccc(-c4ncc(NCC5COC5)c(C(N)=O)n4)c3)no2)C1=O [Example 107, (R)-2-(3-(5-(3-Hydroxy-1-methyl-2-oxopyrrolidin-3-yl)isoxazol-3-yl)phenyl)-5-((oxetan-3-ylmethyl)amino)pyrimidine-4-carboxamide]	< 100	< 100
CN1CC[C@@](O)(c2cc(-c3cccc(-c4cc5cn[nH]c5c(C(N)=O)n4)c3)no2)C1=O [Example 143, (R)-5-(3-(5-(3-hydroxy-1-methyl-2-oxopyrrolidin-3-yl)isoxazol-3-yl)phenyl)-1H-pyrazolo[3,4-c]pyridine-7-carboxamide]	< 100	< 100
CN1CC[C@@](O)(c2cc(-c3cccc(-c4ccnc5[nH]ccc45)c3)no2)C1=O [Example 49, (R)-3-(3-(3-(1H-Pyrrolo[2,3-b]pyridin-4-yl)phenyl)isoxazol-5-yl)-3-hydroxy-1-methylpyrrolidin-2-one]	< 100	> 501
CN1CC[C@@](O)(c2cc(-c3cccc(-c4nc(C(N)=O)c(N)c(C5CC5)n4)c3)no2)C1=O [Example 132, (R)-5-Amino-6-cyclopropyl-2-(3-(5-(3-hydroxy-1-methyl-2-oxopyrrolidin-3-yl)isoxazol-3-yl)phenyl)pyrimidine-4-carboxamide]	< 100	< 100
CN1C(=O)[C@](O)(c2cc(-c3cccc(-c4cc(C5CC5)c(N)c(C(N)=O)n4)c3)no2)C[C@H]1C(F)(F)F [Example 178, 3-Amino-4-cyclopropyl-6-(3-(5-((3R,5S)-3-hydroxy-1-methyl-2-oxo-5-(trifluoromethyl)pyrrolidin-3-yl)isoxazol-3-yl)phenyl)picolinamide]	< 100	> 501
CN1CC[C@@](O)(c2cc(-c3cccc(-c4cccc5c(=O)[nH]ccc45)n3)no2)C1=O [Example 196, (R)-5-(6-(5-(3-Hydroxy-1-methyl-2-oxopyrrolidin-3-yl)isoxazol-3-yl)pyridin-2-yl)isoquinolin-1(2H)-one]	< 100	> 501
CN1CC[C@@](O)(c2cc(-c3cccc(-c4cccc(C(N)=O)c4)c3)no2)C1=O [Example 157, (R)-3′-(5-(3-Hydroxy-1-methyl-2-oxopyrrolidin-3-yl)isoxazol-3-yl)-[1,1′-biphenyl]-3-carboxamide]	> 501	> 501
CN1CC[C@@](O)(c2cc(-c3cccc(-c4cc(C5CC5)c(N)c(C(N)=O)n4)c3F)no2)C1=O [Example 242, (R)-3-Amino-4-cyclopropyl-6-(2-fluoro-3-(5-(3-hydroxy-1-methyl-2-oxopyrrolidin-3-yl)isoxazol-3-yl)phenyl)picolinamide]	< 100	< 100
CN1CC[C@@](O)(c2cc(-c3cccc(-c4nc(C(N)=O)n5ccncc45)c3)no2)C1=O [Example 109, (R)-1-(3-(5-(3-Hydroxy-1-methyl-2-oxopyrrolidin-3-yl)isoxazol-3-yl)phenyl)imidazo[1,5-a]pyrazine-3-carboxamide]	< 100	100 to 500
CN1CC[C@@](O)(c2cc(-c3cccc(-c4sc(Br)nc4C(N)=O)c3)no2)C1=O (single isomer, unassigned) [Example 214]	> 501	> 501
